The subject of the test is yeast cells. In words: MTT assay using transformed E. coli, yeast cells and Daun02 as the prodrug. Type of test: cell-based. As to the method: In an exemplary embodiment, E. coli BL21 cells were transformed with the pSV-β-Galactosidase plasmid which contains a gene for beta-gal (available from Promega, Wisconsin, USA). Other types of bacteria and differently configured plasmids can also be used. Yeast can act as a eukaryotic cell model for cancer cells. Yeast cells contain mitochondria and a number of proteins homologous to those in humans. A MTT assay was performed using the transformed E. coli, yeast cells, and Daun02 as the prodrug. MTT is a tetrazolium dye which is converted into an insoluble purple-colored product (formazan) by live cells. The presence of formazan was measured spectrophotometrically. […] FIGS. 2A and 2B illustrate results of studies in which growing yeast cells were exposed to transformed E. coli BL21 cells and the prodrug Daun02. Bacteria and yeast were cultured over night and allowed to grow for 3 hours to be in optimal linear growth phase and samples were incubated together for approximately 5.5 or 10 hours in a 96 well microwell plate. The antibiotic kanamycin was added to all sample wells to reduce bacterial background signal. MTT dye was then added to wells and samples were incubated for three hours. A solubilization solution was then added, incubated for one hour, and the optical density was measured at 570 nm with a microplate reader. The absorbance at 570 nm of bacteria-only and bacteria and yeast-only samples were also measured. […] FIGS. 2A and 2B display results from different treatment times: 5.5 hours and 10 hours, respectively. […] Samples C and D contained beta-gal expressing bacteria, prodrug, and yeast cells. […] The length of time can be increased or decreased to increase the effectiveness of the treatment. […] A 2-Sample T-Test between the control sample and Sample C in the 10 hour experiment returned a p-value of 0.00296. […] Both p-values are smaller than the alpha level of 0.05 chosen before experimentation.
On the technique in general: Formazan colour is commonly taken as a measure of viable cells.

As to `COc1cccc2c1C(=O)c1c(O)c3c(c(O)c1C2=O)C[C@@](O)(C(C)=O)C[C@@H]3O[C@H]1C[C@H](NC(=O)OCc2ccc(O[C@@H]3O[C@H](CO)[C@H](O)[C@H](O)[C@H]3O)c([N+](=O)[O-])c2)[C@H](O)[C@H](C)O1` [Daun02, N-[4″-(β-galactopyranosyl)-3″-nitrobenzyloxycarbonyl]daunomycin], the “MTT absorbance at 570 nm (yeast cell survival)” value is “yeast cell death” (Sample C: 2.5 μM Daun02 with beta-gal expressing E. coli BL21, 10 hours, p-value 0.00296 vs control); “low absorption values” (Sample D: 5 μM Daun02 with beta-gal expressing E. coli BL21, 5.5 hours, bacterial background subtracted); “yeast cell death” (Sample D: 5 μM Daun02 with beta-gal expressing E. coli BL21, 10 hours, p-value 0.00593 vs control); “close to the control values” (Samples A and B: yeast and prodrug, no bacteria (no added beta-gal enzyme), 5.5 and 10 hours).
